Results taken from patent US20080125466A1, “Aryl-Substituted Benzo[D]Isothiazol-3-Ylamine Analogues” (NEUROGEN CORPORATION, priority 2003, published 2008).

Molecular target: T1, human capsaicin receptor (Homo sapiens, UniProt Q8NER1)
T1 construct: transfected with the pBK-CMV expression construct encoding the full length human capsaicin receptor; expressed in transfected cells
Experiment: Calcium mobilization assay (antagonist and agonist activity)
Assay type: cell-based
Details: capsaicin as positive control in agonist assay; read-out: approximate EC90 concentration
Description: This Example illustrates representative calcium mobilization assays for use in evaluating test compounds for agonist and antagonist activity.
The culture medium is emptied from the 96 well plates and FLUO-3 AM calcium sensitive dye (Molecular Probes, Eugene, Oreg.) is added to each well (dye solution: 1 mg FLUO-3 AM, 440 μL DMSO and 440 μl 20% pluronic acid in DMSO, diluted 1:250 in Krebs-Ringer HEPES (KRH) buffer (25 mM HEPES, 5 mM KCl, 0.96 mM NaH2PO4, 1 mM MgSO4, 2 mM CaCl2, 5 mM glucose, 1 mM probenecid, pH 7.4), 50 μl diluted solution per well). Plates are covered with aluminum foil and incubated at 37° C. for 1-2 hours in an environment containing 5% CO2. […]
To measure the ability of a test compound to agonize or antagonize a calcium mobilization response in cells expressing capsaicin receptors to capsaicin or other vanilloid agonist, the EC50 of the agonist capsaicin is first determined. […] Capsaicin-induced calcium mobilization is monitored using either FLUOROSKAN ASCENT (Labsystems; Franklin, Mass.) or FLIPR (fluorometric imaging plate reader system; Molecular Devices, Sunnyvale, Calif.) instruments. […]
In this equation, y is the maximum fluorescence signal, x is the concentration of the agonist or antagonist (in this case, capsaicin), a is the Emax, b corresponds to the EC50 value and c is the Hill coefficient. […]

T1 sequence (Q8NER1 whole entry): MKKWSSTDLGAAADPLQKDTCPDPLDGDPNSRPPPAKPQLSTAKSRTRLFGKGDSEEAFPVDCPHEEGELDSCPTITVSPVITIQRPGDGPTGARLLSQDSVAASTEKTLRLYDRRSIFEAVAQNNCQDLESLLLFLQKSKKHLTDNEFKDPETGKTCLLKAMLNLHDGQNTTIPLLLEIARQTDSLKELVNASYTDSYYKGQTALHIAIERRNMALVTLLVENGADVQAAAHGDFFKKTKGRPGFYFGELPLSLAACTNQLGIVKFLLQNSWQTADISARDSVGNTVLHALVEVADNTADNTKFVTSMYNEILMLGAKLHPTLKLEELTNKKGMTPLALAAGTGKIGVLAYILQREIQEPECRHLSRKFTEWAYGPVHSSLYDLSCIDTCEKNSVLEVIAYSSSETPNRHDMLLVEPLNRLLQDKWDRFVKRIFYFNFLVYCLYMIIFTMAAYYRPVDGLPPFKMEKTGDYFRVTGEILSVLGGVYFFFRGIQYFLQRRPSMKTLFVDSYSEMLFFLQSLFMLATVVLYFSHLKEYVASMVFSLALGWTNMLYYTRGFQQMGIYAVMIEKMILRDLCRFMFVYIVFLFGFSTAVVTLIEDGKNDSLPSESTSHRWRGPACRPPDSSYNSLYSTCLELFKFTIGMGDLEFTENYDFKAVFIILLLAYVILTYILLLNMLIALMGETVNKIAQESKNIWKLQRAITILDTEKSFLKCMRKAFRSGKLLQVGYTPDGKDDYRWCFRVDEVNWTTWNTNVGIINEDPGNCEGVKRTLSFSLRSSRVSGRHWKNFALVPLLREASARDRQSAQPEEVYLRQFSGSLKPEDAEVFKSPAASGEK

## COc1cc(CNC(=O)CCCC/C=C/C(C)C)ccc1O [capsaicin]
  EC90: ~100 nM
